Converted amounts (≈) assume the structure as drawn. “Also recorded” adds a separate entry of the source. Read-outs that look alike come from different tables or passages of the source.
Key:
[1] = tested on: HIV-1; design: method as in PMID 9453250; settings: latently infected T cell clone; cited from earlier work
[2] = tested on: HIV-1; design: method as in PMID 11424110; settings: by inducing selective apoptosis of HIV infected cells; cited from earlier work
[3] = tested on: HIV-1; settings: freshly infected U937 monocytoid cells; cited from earlier work
[4] = tested on: HIV-1KM018; test: Inhibition of HIV-1 p24 antigen production in PBMC; type: cell-based
Procedure: Adequate numbers of PHA activated normal PBMC were incubated with HIV-1KM018 (M.O.I. = 0.03) in presence of varying concentrations of the compound. After 3 h of virus adsorption, the cells were washed twice with PBS and incubated with or without various concentration of compound in culture medium supplemented with 50 U/mL human recombinant IL-2 at 1.2 × 10^6 cells/mL for seven days. Half of the medium was changed with corresponding compound concentrations on the third day. At seven days post-infection, HIV-1 p24 antigen in cell-free culture supernatants was analyzed by ELSIA. The percent inhibition of HIV-1 p24 antigen production in PBMC was calculated.

[5] = tested on: HIV-1IIIB; test: Syncytia assay (CPE inhibition), HIV-1IIIB in C8166 cells; type: cell-based
Procedure: (§1) In the presence of 100 μL of various concentrations of the tested compound, C8166 cells (4 × 10^5cells/mL) were infected with virus (HIV-1IIIB, HIV-2CBL-20 or HIV-2ROD) at a multiplicity of infection (M.O.I.) of 0.06. The final volume per well was 200 μL. Control assays were performed without the testing compounds in HIV-1 IIIB infected and uninfected cultures. AZT was included as positive control. After three days of culture, the cytopathic effect (CPE) was measured by counting the number of syncytia in each well under an inverted microscope. EC50 was then calculated.

[6] = tested on: PBMC; test: MTT-based cytotoxicity assay, PBMC; type: cell-based; settings: PBMC, MTT
Procedure: (§2) Cell lines (C8166, H9, H9/HIV-1IIIB, Jurkat, Jurkat/HIV-1IIIB) were maintained in RPMI-1640 supplemented with 10% heat-inactivated newborn calf serum (Gibco, Auckland, New Zealand). The cells used in all experiments were in log-phase growth. PBMC from healthy donors were isolated by Ficoll-Hypaque centrifugation, then incubated in complete medium containing 5μg/mL phytohemagglutinin (PHA) (Sigma) and 50 U/mL human recombinant IL-2 for 72 h prior to use for antiviral assays. The laboratory-derived viruses (HIV-1IIIB, HIV-2ROD, HIV-2CBL-20) were obtained from the Medical Research Council (MRC), AIDS Reagent Project (UK) and the NIH AIDS Research and Reference Reagent Program (USA). The clinically isolated HIV-1KM018 was obtained from a naive HIV-1-infected individual in Yunnan Province, China, as described. The 50% HIV-1 tissue culture infectious dose (TCID50) was determined and calculated by the Reed and Muench method. Virus stocks were stored in aliquots at −70 °C.
(§3) Cellular toxicity of compounds 1–3 was assessed by the MTT method, as described previously. Briefly, cells were seeded on a microtiter plate in the absence or presence of various concentrations of compounds in triplicate and incubated at 37 °C in a humid atmosphere of 5% CO2 for three days. Twenty microliters of MTT reagent (5 mg/mL in PBS) was added to each well, then incubated at 37 °C for 4 h. One hundred microliters of 50% DMF-20% SDS was then added. After the formazan was dissolved completely, the plates were read on a Bio-Tek ELx 800 ELISA reader at 595 nm/630 nm. The results were shown as absorbance values, and the CC50 was calculated.

[7] = tested on: C8166; test: MTT-based cytotoxicity assay, C8166; type: cell-based; settings: C8166, MTT
Procedure: as §3

[8] = tested on: HIV-2CBL-20; test: Syncytia assay (CPE inhibition), HIV-2CBL-20 in C8166 cells; type: cell-based
Procedure: as §1

[9] = tested on: HIV-2ROD; test: Syncytia assay (CPE inhibition), HIV-2ROD in C8166 cells; type: cell-based
Procedure: as §1

[10] = tested on: HIV; design: method as in PMID 11725078; settings: cited from earlier work
[11] = tested on: equine anemia virus; design: method as in PMID 11725078; settings: cited from earlier work
[12] = MTT-based cytotoxicity assay, PBMC; type: cell-based; settings: human
Procedure: as §2, §3

[13] = MTT-based cytotoxicity assay, C8166; type: cell-based; settings: human
Procedure: as §3

[14] = tested on: HIV-1IIIB/H9; test: Co-cultivation assay (cell-to-cell fusion C8166 with H9/HIV-1IIIB); type: cell-based
Procedure: Cell-to-cell fusion between normal C8166 cells and H9 cells chronically infected withHIV-1IIIB was quantified under an inverted microscope. First, 3 × 10^4 C8166 cells co-cultured with 1 × 10^4 H9/HIV-1IIIB cells in the presence or absence of the compound at varying concentrations. They were incubated at 37 °C in a humidified atmosphere of 5% CO2. Dextran sulfate (DS) was used as positive control. After 6 h incubation, the number of syncytia was scored under an inverted microscope.

[15] = target: T1, HIV-1 reverse transcriptase (Human immunodeficiency virus type 1 group M subtype B, UniProt P04585); test: Inhibition assay of recombinant HIV-1 RT activity (ELISA); type: biochemical
T1 construct: purchased Roche, Mannheim, Germany
Procedure: HIV-1 reverse transcriptase (RT) activity was measured by the ELISA RT kit using a commercially available kit (Roche, Mannheim, Germany) according to the instructions of the manufacturer. The compounds were incubated with DIG-labeled reaction mixture at 37 °C for 2 h, then anti-DIG-POD solution was added, followed by substrate ABTS. Foscarnet was used as a positive control. The absorbency at 405 nm/490 nm was read on the Bio-Tek ELx 800 ELISA reader.

[16] = target: T2, HIV-1 integrase (Human immunodeficiency virus type 1 group M subtype B, UniProt P04585); test: Binding to HIV-1 integrase by SPR (BIAcore)
T2 construct: Integrase was immobilized on the surface of the chip
Procedure: The interaction between the compound and HIV-1 integrase (IN) was determined by SPR using a BIAcore 3000TM biosensor system as previously described. Integrase was immobilized on the surface of the chip. To allow association, various concentrations of the compound diluted in HBS-EP was applied to a chip containing immobilized integrase. Dissociation of the compound from the integrase was monitored in real-time after application of buffer to wash the chip and the kinetic rate constants for dissociation (Kd) was obtained by fitting the real-time data using BIA evaluation software.

[17] = MTT-based cytotoxicity assay, Jurkat/HIV-1IIIB; type: cell-based; settings: human, Jurkat/HIV-1IIIB cells
Procedure: as §3

[18] = target: T3, HIV-1 protease (Human immunodeficiency virus type 1 group M subtype B, UniProt P04585); test: Inhibition assay of recombinant HIV-1 protease activity (fluorescent); type: biochemical
T3 construct: The recombinant HIV-1 protease (PR) was expressed and purified, as previously described; made in house
Procedure: The recombinant HIV-1 protease (PR) was expressed and purified, as previously described. HIV-1 PR was diluted in reaction buffer. The compounds were added and incubated for 30 min at room temperature. Fluorescent substrate DABCYL-γ-Abu-Ser-Gln-Asn-Tyr-Pro-Ile-Val-Gln-EDANS (Anaspec, San Jose, USA) was added to initiate the reaction. The mixture was allowed to react for 90 min and the change of the fluorescent signal was monitored. Negative (double distilled water) and positive (1 μM indinavir) controls were included. The percent inhibition of PR activity was calculated.

[19] = tested on: H9/HIV-1IIIB; test: MTT-based cytotoxicity assay, H9/HIV-1IIIB; type: cell-based; settings: 3 days of incubation; listed as 7-Hydroxymethyl-CPT
Procedure: as §3

[20] = MTT-based cytotoxicity assay, H9/HIV-1IIIB; type: cell-based; settings: human, H9/HIV-1IIIB cells; H9/HIV-1IIIB, MTT, 3 days
Procedure: as §3

[21] = tested on: H9/HIV-1IIIB; test: ELISA in chronically infected H9/HIV-1IIIB cells; type: cell-based; settings: Human immunodeficiency virus 1
Procedure: Chronically infected cell with HIV-1IIIB (H9/HIV-1IIIB) were washed three times with PBS to remove free virus particle. 200 µL/well (3 × 10^5 cells/mL) of the cell suspension was cultured for three days in a 96-well culture plate with different concentrations of compound. The p24 antigen in the culture supernatants was assayed by ELISA.

[22] = design: method as in PMID 12775425; settings: cited from earlier work
[23] = Human immunodeficiency virus 2, 72 h, C8166, HIV-2CBL-20, syncytia, 3 days, read-out: EC50
[24] = Human immunodeficiency virus 1, 168 h, PBMC, HIV-1KM018, p24, 7 days, read-out: EC50
[25] = Human immunodeficiency virus 2, 72 h, C8166, HIV-2ROD, syncytia, 3 days, read-out: EC50
[26] = Human immunodeficiency virus 1, 72 h, C8166, HIV-1IIIB, syncytia, 3 days, read-out: EC50
[27] = Human immunodeficiency virus 2, C8166, 72 h
[28] = cell-free system, in words, listed as 7-hydroxymethyl-CPT

CC[C@@]1(O)C(=O)OCc2c1cc1n(c2=O)Cc2cc3c([N+](=O)[O-])cccc3nc2-1 [9-nitrocamptothecin (9NC), 9-nitrocamptothecin]
tumor necrosis factor-mediated activation of HIV-1 [1]: inhibited | HIV-1 replication [2]: reduced | inhibition of HIV-1 replication [3]: showed inhibition

Cc1cn([C@H]2C[C@H](N=[N+]=[N-])[C@@H](CO)O2)c(=O)[nH]c1=O [AZT, reference compound]
EC50 ([4]; PBMC, HIV-1KM018, p24, 7 days): 0.0024 ± 0.0003 mg/L (≈ 0.00898 µM) | EC50 ([5]; C8166, HIV-1IIIB, syncytia, 3 days): 0.003 ± 0.0003 mg/L (≈ 0.0112 µM) | CC50 [6]: 0.45(mg/ml | CC50 [7]: 1.12(mg/ml)

CC[C@@]1(O)C(=O)OCc2c1cc1n(c2=O)Cc2cc3ccccc3nc2-1 [Compound 1, Camptothecin]
EC50 [8, 23]: 0.004 ± 0.0003 mg/L (≈ 0.0115 µM) | EC50 [4, 24]: 0.0074 ± 0.0011 mg/L (≈ 0.0212 µM) | EC50 [9, 25]: 0.0067 ± 0.0001 mg/L (≈ 0.0192 µM) | inhibition of replication of HIV [10]: weakly inhibit | EC50 [5, 26]: 0.0057 ± 0.0001 mg/L (≈ 0.0164 µM) | inhibition of replication of equine anemia virus [11]: weakly inhibit | CC50 at 3 days ([12]; PBMC (peripheral blood mononuclear cells), PHA-stimulated, PBMC, MTT, read-out: CC50): 0.0759 ± 0.0131 mg/L (≈ 0.218 µM) | CC50 ([7]; 3 days): 137.8 ± 7.8 ng/mL (≈ 0.396 µM) | CC50 at 3 days ([13]; C8166 cells, C8166, MTT, 3 days, read-out: CC50): 0.138 mg/L (≈ 0.396 µM)

CC[C@@]1(O)C(=O)OCc2c1cc1n(c2=O)Cc2cc3cc(O)ccc3nc2-1 [Compound 2, 10-hydroxycamptothecin]
EC50 [8, 27]: 0.0132 ± 0.001 mg/L (≈ 0.0362 µM) | EC50 ([4]; Human immunodeficiency virus 1, PBMC, 168 h): 0.0105 ± 0.0004 mg/L (≈ 0.0288 µM) | EC50 [9, 27]: 0.025 ± 0.0009 mg/L (≈ 0.0686 µM) | EC50 ([5]; Human immunodeficiency virus 1, C8166, 72 h): 0.0334 ± 0.0003 mg/L (≈ 0.0917 µM) | CC50 at 3 days ([12]; PBMC, MTT, read-out: CC50): 0.0363 ± 0.0118 mg/L (≈ 0.0996 µM) | CC50 at 3 days ([13]; C8166, MTT, 3 days, read-out: CC50): 0.141 ± 0.0097 mg/L (≈ 0.387 µM)

CC[C@@]1(O)C(=O)OCc2c1cc1n(c2=O)Cc2c-1nc1ccccc1c2CO [Compound 3, 7-Hydroxymethylcamptothecin]
EC50 [8, 23]: 0.0005 ± 0.0001 mg/L (≈ 0.00132 µM) | EC50 ([14]; Human immunodeficiency virus 1, C8166 with HIV-1IIIB/H9, co-cultivation, 6 h): > 2 mg/L | inhibition of viral cell-to-cell transmission ([14]; in words): no inhibition | EC50 [15]: > 44.9 µM | inhibition of reverse transcriptase [15, 28]: no inhibition; also recorded: did not show any inhibition | Kd [16]: 64.9 µM | inhibition of integrase [16, 28]: no inhibition; also recorded: did not show any inhibition | EC50 [4, 24]: 0.0009 ± 0.0001 mg/L (≈ 0.00238 µM) | EC50 [9, 25]: 0.0024 ± 0.0002 mg/L (≈ 0.00634 µM) | CC50 at 3 days [17]: 0.041 mg/L (≈ 0.108 µM) | EC50 [18]: > 106 µM | inhibition of protease [18, 28]: no inhibition; also recorded: did not show any inhibition | EC50 [5, 26]: 0.0008 ± 0.0002 mg/L (≈ 0.00211 µM) | CC50 at 3 days [12]: 0.06 ± 0.0101 mg/L (≈ 0.159 µM) | selective killing of chronically infected cells (H9/HIV-1IIIB compared with uninfected H9) [19]: no selective killing | CC50 at 3 days [20]: 0.0157 mg/L (≈ 0.0415 µM) | EC50 [21]: > 17 mg/L | CC50 at 3 days [13]: 0.159 ± 0.0137 mg/L (≈ 0.419 µM)

CC[C@@]1(O)C(=O)OCc2c1cc1n(c2=O)Cc2cc3c(CN(C)C)c(O)ccc3nc2-1 [Topotecan]
treatment of AIDS-related progressive multifocal leukoencephalopathy [22]: efficient
